US9593108B2, “Compounds and methods for antiviral treatment” (PTC Therapeutics, Inc., priority 2009, dated 2017)

How the values were obtained:
[1] = test system: HCV replicon RNA (GenBank Accession No. AJ242654); experiment: HCV Replicon Assay (replicon RNA reduction and/or Fluc reporter signal); type: cell-based, Hepatitis C virus; details: Hepatitis C virus, 72 h, replicon-containing cells cultured with test compound for up to 3 days
Summary of the method: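 Bicistronic replicon-containing cells cultured with compound for up to 3 days, with interferon as positive control. Inhibition quantified by replicon RNA reduction and/or Fluc reporter signal; IC50 values generally derived from replicon RNA reduction.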

SMILES | melting point | IC50 [1]
CN(C)c1cnc2c(c1)c(C#N)c(-c1ccc(NS(=O)(=O)C(C)(C)C)cc1)n2C1CCC1 [Cpd 498, N-{4-[3-cyano-1-cyclobutyl-5-(dimethylamino)-1H-pyrrolo[2,3-b]pyridin-2-yl]phenyl}-2-methylpropane-2-sulfonamide] | 200 to 202 °C | < 500 nM
Cc1cnc2c(c1)c(C#N)c(-c1ccc(S(=O)(=O)N[C@@H](C)C(F)(F)F)cn1)n2C [Cpd 490, 6-(3-cyano-1,5-dimethyl-1H-pyrrolo[2,3-b]pyridin-2-yl)-N-[(2S)-1,1,1-trifluoropropan-2-yl]pyridine-3-sulfonamide] | 182 to 186 °C | 500 to 2000 nM
Cc1ncc2c(C#N)c(-c3ccc(S(=O)(=O)N[C@H](C)C(F)(F)F)cn3)n(C3CCC3)c2n1 [Cpd 46, 6-(5-cyano-7-cyclobutyl-2-methyl-7H-pyrrolo[2,3-d]pyrimidin-6-yl)-N-[(2R)-1,1,1-trifluoropropan-2-yl]pyridine-3-sulfonamide] | 166 to 168 °C | < 500 nM
C[C@H](NS(=O)(=O)c1ccc(-c2c(C#N)c3cccnc3n2C2CCC2)nc1)C(F)(F)F [Cpd 18, 6-(3-cyano-1-cyclobutyl-1H-pyrrolo[2,3-b]pyridin-2-yl)-N-[(2S)-1,1,1-trifluoropropan-2-yl]pyridine-3-sulfonamide] | 183 to 185 °C | 500 to 2000 nM
Cc1cnc2c(C#N)c(-c3ccc(S(=O)(=O)NC4(C(F)(F)F)CC4)cn3)n(C3CCC3)c2c1 [Cpd 208, 6-(3-cyano-1-cyclobutyl-6-methyl-1H-pyrrolo[3,2-b]pyridin-2-yl)-N-[1-(trifluoromethyl)cyclopropyl]pyridine-3-sulfonamide] | 248 to 249 °C | < 500 nM
N#Cc1c(-c2ccc(S(=O)(=O)NC3(C(F)(F)F)CC3)cc2)n(C2CCCCC2)c2ncc(C(F)(F)F)cc12 [Cpd 420, 4-[3-cyano-1-cyclohexyl-5-(trifluoromethyl)-1H-pyrrolo[2,3-b]pyridin-2-yl]-N-[1-(trifluoromethyl)cyclopropyl]benzenesulfonamide] | 195 to 197 °C | < 500 nM
C[C@H](NS(=O)(=O)c1ccc(-c2c(C#N)c3cc(F)cnc3n2CC2CC2)nc1)C(F)(F)F [Cpd 64, 6-[3-cyano-1-(cyclopropylmethyl)-5-fluoro-1H-pyrrolo[2,3-b]pyridin-2-yl]-N-[(2S)-1,1,1-trifluoropropan-2-yl]pyridine-3-sulfonamide] | 186 to 188 °C | < 500 nM
C[C@H](NS(=O)(=O)c1ccc(-c2c(C#N)c3cc(Br)cnc3n2-c2cnccn2)nc1)C(F)(F)F [Cpd 340, 6-[5-bromo-3-cyano-1-(pyrazin-2-yl)-1H-pyrrolo[2,3-b]pyridin-2-yl]-N-[(2S)-1,1,1-trifluoropropan-2-yl]pyridine-3-sulfonamide] | 247 to 248 °C | < 500 nM
CCc1cnc2c(c1)c(C#N)c(-c1ccc(S(=O)(=O)N[C@@H](C)C(F)(F)F)cn1)n2-c1ccccc1 [Cpd 413, 6-(3-cyano-5-ethyl-1-phenyl-1H-pyrrolo[2,3-b]pyridin-2-yl)-N-[(2S)-1,1,1-trifluoropropan-2-yl]pyridine-3-sulfonamide] | 135 to 140 °C | < 500 nM
Cc1ncc2c(C#N)c(-c3ccc(S(=O)(=O)N[C@@H](C)C(F)(F)F)cn3)n(C3CCCC3)c2n1 [Cpd 163, 6-(5-cyano-7-cyclopentyl-2-methyl-7H-pyrrolo[2,3-d]pyrimidin-6-yl)-N-[(2S)-1,1,1-trifluoropropan-2-yl]pyridine-3-sulfonamide] | 212 to 215 °C | 500 to 2000 nM
CCCS(=O)(=O)Nc1ccc(-c2c(C#N)c3cc(C(F)(F)F)cnc3n2C2CCC2)cc1 [Cpd 247, N-{4-[3-cyano-1-cyclobutyl-5-(trifluoromethyl)-1H-pyrrolo[2,3-b]pyridin-2-yl]phenyl}propane-1-sulfonamide] | 180 to 181 °C | 500 to 2000 nM
CC(C)NS(=O)(=O)c1cnc(-c2c(C#N)c3cnc(Cl)cc3n2C2CCC2)nc1 [Cpd 100, 2-(6-chloro-3-cyano-1-cyclobutyl-1H-pyrrolo[3,2-c]pyridin-2-yl)-N-(propan-2-yl)pyrimidine-5-sulfonamide] | 238 to 239 °C | < 500 nM
Cc1cnc2c(c1)c(C#N)c(-c1ccc(S(=O)(=O)N[C@@H](C)C(F)(F)F)cn1)n2-c1cccnc1 [Cpd 347, 6-[3-cyano-5-methyl-1-(pyridin-3-yl)-1H-pyrrolo[2,3-b]pyridin-2-yl]-N-[(2S)-1,1,1-trifluoropropan-2-yl]pyridine-3-sulfonamide] | 205 to 207 °C | < 500 nM
N#Cc1c(-c2ccc(S(=O)(=O)NC3CCC3)cn2)n(C2CCC2)c2ncc(Cl)cc12 [Cpd 283, 6-(5-chloro-3-cyano-1-cyclobutyl-1H-pyrrolo[2,3-b]pyridin-2-yl)-N-cyclobutylpyridine-3-sulfonamide] | 178 to 180 °C | < 500 nM
CCc1cnc2c(c1)c(C(N)=O)c(-c1ccc(S(=O)(=O)NC(C)(C)C(F)(F)F)cc1)n2C1CCC1 [Cpd 378, 1-cyclobutyl-5-ethyl-2-{4-[(1,1,1-trifluoro-2-methylpropan-2-yl)sulfamoyl]phenyl}-1H-pyrrolo[2,3-b]pyridine-3-carboxamide] | 185 to 193 °C | < 500 nM
Cc1cnc2c(C#N)c(-c3ncc(S(=O)(=O)NC(CF)CF)cn3)n(C3CCC3)c2c1 [Cpd 213, 2-(3-cyano-1-cyclobutyl-6-methyl-1H-pyrrolo[3,2-b]pyridin-2-yl)-N-(1,3-difluoropropan-2-yl)pyrimidine-5-sulfonamide] | 269 to 271 °C | < 500 nM
CC(C)(C)S(=O)(=O)Nc1ccc(-c2c(C#N)c3cc(Cl)cnc3n2C2CCC2)cc1 [Cpd 385, N-[4-(5-chloro-3-cyano-1-cyclobutyl-1H-pyrrolo[2,3-b]pyridin-2-yl)phenyl]-2-methylpropane-2-sulfonamide] | 240 to 241 °C | < 500 nM
Cc1cnc2c(C#N)c(-c3ccc(S(=O)(=O)NC(C)(C)C(F)(F)F)cn3)n(C3CCCC3)c2c1 [Cpd 173, 6-(3-cyano-1-cyclopentyl-6-methyl-1H-pyrrolo[3,2-b]pyridin-2-yl)-N-(1,1,1-trifluoro-2-methylpropan-2-yl)pyridine-3-sulfonamide] | 265 to 267 °C | < 500 nM
CCc1cnc2c(c1)c(C#N)c(-c1ccc(S(=O)(=O)N[C@@H](C)C(F)(F)F)cn1)n2-c1cccs1 [Cpd 509, 6-[3-cyano-5-ethyl-1-(thiophen-2-yl)-1H-pyrrolo[2,3-b]pyridin-2-yl]-N-[(2S)-1,1,1-trifluoropropan-2-yl]pyridine-3-sulfonamide] | 169 to 171 °C | < 500 nM
Cc1nc2c(cc1C(F)(F)F)c(C#N)c(-c1ccc(S(=O)(=O)N[C@@H](C)C(F)(F)F)cn1)n2C1CCC1 [Cpd 405, 6-[3-cyano-1-cyclobutyl-6-methyl-5-(trifluoromethyl)-1H-pyrrolo[2,3-b]pyridin-2-yl]-N-[(2S)-1,1,1-trifluoropropan-2-yl]pyridine-3-sulfonamide] | 201 to 203 °C | < 500 nM
CCCn1c(-c2ccc(S(=O)(=O)N[C@@H](C)C(F)(F)F)cc2)c(C#N)c2cc(C)cnc21 [Cpd 485, 4-(3-cyano-5-methyl-1-propyl-1H-pyrrolo[2,3-b]pyridin-2-yl)-N-[(2S)-1,1,1-trifluoropropan-2-yl]benzenesulfonamide] | 235 to 240 °C | < 500 nM
COc1cnc2c(c1)c(C(N)=O)c(-c1ccc(S(=O)(=O)N[C@@H](C)C(F)(F)F)cn1)n2C1CCC1 [Cpd 226, 1-cyclobutyl-5-methoxy-2-(5-{[(2S)-1,1,1-trifluoropropan-2-yl]sulfamoyl}pyridin-2-yl)-1H-pyrrolo[2,3-b]pyridine-3-carboxamide] | 233 to 235 °C | < 500 nM
N#Cc1c(-c2ccc(S(=O)(=O)NC3CC3)cn2)n(C2CCC2)c2cnc(Cl)cc12 [Cpd 106, 6-(5-chloro-3-cyano-1-cyclobutyl-1H-pyrrolo[2,3-c]pyridin-2-yl)-N-cyclopropylpyridine-3-sulfonamide] | 170 to 172 °C | < 500 nM
Cc1cnc2c(c1)c(C#N)c(-c1ccc(S(=O)(=O)N[C@@H](C)C(F)(F)F)cn1)n2-c1cc(F)cc(F)c1 [Cpd 506, 6-[3-cyano-1-(3,5-difluorophenyl)-5-methyl-1H-pyrrolo[2,3-b]pyridin-2-yl]-N-[(2S)-1,1,1-trifluoropropan-2-yl]pyridine-3-sulfonamide] | 260 to 262 °C | < 500 nM
NC(=O)c1c(-c2ccc(S(=O)(=O)NC3(C(F)(F)F)CC3)cn2)n(C2CCC2)c2ncc(C(F)(F)F)cc12 [Cpd 400, 1-cyclobutyl-5-(trifluoromethyl)-2-(5-{[1-(trifluoromethyl)cyclopropyl]sulfamoyl}pyridin-2-yl)-1H-pyrrolo[2,3-b]pyridine-3-carboxamide] | 230 to 235 °C | < 500 nM
CCCOc1cnc2c(c1)c(C#N)c(-c1ccc(S(=O)(=O)N[C@H](C)C(F)(F)F)cn1)n2C1CCC1 [Cpd 205, 6-(3-cyano-1-cyclobutyl-5-propoxy-1H-pyrrolo[2,3-b]pyridin-2-yl)-N-[(2R)-1,1,1-trifluoropropan-2-yl]pyridine-3-sulfonamide] | 169 to 170 °C | < 500 nM
N#Cc1cnc2c(c1)c(C#N)c(-c1ccc(S(=O)(=O)NC3(C(F)(F)F)CC3)cc1)n2C1CCC1 [Cpd 112, 4-(3,5-dicyano-1-cyclobutyl-1H-pyrrolo[2,3-b]pyridin-2-yl)-N-[1-(trifluoromethyl)cyclopropyl]benzenesulfonamide] | 231 to 233 °C | < 500 nM
N#Cc1c(-c2ccc(NS(=O)(=O)C3CC3)cc2)n(C2CCCCC2)c2ncc(C(F)(F)F)cc12 [Cpd 427, N-{4-[3-cyano-1-cyclohexyl-5-(trifluoromethyl)-1H-pyrrolo[2,3-b]pyridin-2-yl]phenyl}cyclopropanesulfonamide] | 225 to 227 °C | < 500 nM
